# Experimental data as given in patent publication US7053107B2, “Indazole compounds and pharmaceutical compositions for inhibiting protein kinases, and methods for their use” (Agouron Pharmaceuticals, Inc., priority 2002, dated 2006).
# Where two headings read alike, the source gives them in different places.
# What was measured:
# Mouse PK Assay = format: in vivo; conditions: female, B6, plasma
# Method: The pharmacokinetics (e.g., absorption and elimination) of drugs in mice were analyzed using the following experiment. Test compounds were formulated as a solution or suspension in a 30:70 (PEG 400: acidified H2O) vehicle or as a suspension in 0.5% CMC. This was administered orally (p.o.) and intraperitoneally (i.p.) at variable doses to two distinct groups (n=4) of B6 female mice. Blood samples were collected via an orbital bleed at time points: 0 hour (pre-dose), 0.5 h, 1.0 h, 2.0 h, and 4.0 h, and 7.0 h post dose. Plasma was obtained from each sample by centrifugation at 2500 rpm for 5 min. Test compound was extracted from the plasma by an organic protein precipitation method. For each time bleed 50 μL of plasma was combined with 1.0 mL of acetonitrile, vortexed for 2 min. and then spun at 4000 rpm for 15 min. to precipitate the protein and extract out the test compound. […] Test-compound plasma concentrations (μg/mL) were determined by a comparison to standard curve (peak area vs. conc. μg/mL) using known concentrations of test compound extracted from plasma samples in the manner described above. […] The quantitated test samples were plotted for visual display using Kalidagraph software and their pharmacokinetic parameters were determined using WIN NONLIN software. […]
# [1] = molecular target: T1, unphosphorylated VEGF-R2Δ50 (Homo sapiens, UniProt P35968, DEL940-989/E990V); test: VEGF-R2 coupled spectrophotometric assay, unphosphorylated construct (FLVK); format: biochemical; conditions: % inhibition at 50 nM compound; read-out: FLVK Ki % inh @ 50 nM
# T1 construct: VEGF-R2Δ50 contains residues 806–939 and 990–1171; made in house; host or cells: baculovirus/insect cell system
# Text: This construct determines the ability of a test compound to inhibit tyrosine kinase activity. A construct (VEGF-R2Δ50) of the cytosolic domain of human vascular endothelial growth factor receptor 2 (VEGF-R2) lacking the 50 central residues of the 68 residues of the kinase insert domain was expressed in a baculovirus/insect cell system. Of the 1356 residues of full-length VEGF-R2, VEGF-R2Δ50 contains residues 806–939 and 990–1171, and also one point mutation (E99OV) within the kinase insert domain relative to wild-type VEGF-R2. Autophosphorylation of the purified construct was performed by incubation of the enzyme at a concentration of 4 μM in the presence of 3 mM ATP and 40 mM MgCl2 in 100 mM HEPES, pH 7.5, containing 5% glycerol and 5 mM DTT, at 4° C. for 2 h. […] See Parast et al., Biochemistry, 37,16788–16801 (1998).
# (§1) The production of ADP from ATP that accompanies phosphoryl transfer was coupled to oxidation of NADH using phosphoenolpyruvate (PEP) and a system having pyruvate kinase (PK) and lactic dehydrogenase (LDH). The oxidation of NADH was monitored by following the decrease of absorbance at 340 nm (e340=6.22 cm^−1 mM^−1) using a Beckman DU 650 spectrophotometer. Assay conditions for phosphorylated VEGF-R2A50 (indicated as FLVK-P in the tables below) were the following: 1 mM PEP; 250 μM NADH; 50 units of LDH/mL; 20 units of PK/mL; 5 mM DTT; 5.1 mM poly(E4Y1); 1 mM ATP; and 25 mM MgCl2 in 200 mM HEPES, pH 7.5. Assay conditions for unphosphorylated VEGF-R2Δ50 (indicated as FLVK in the tables) were the following: 1 mM PEP; 250 μM NADH; 50 units of LDH/mL; 20 units of PK/mL; 5 mM DTT; […]; 3 mM ATP; and 60 mM MgCl2 and 2 mM MnCl2 in 200 mM HEPES, pH 7.5. Assays were initiated with 5 to 40 nM of enzyme. Ki values were determined by measuring enzyme activity in the presence of varying concentrations of test compounds. The data were analyzed using Enzyme Kinetic and Kaleidagraph software.
# [2] = Human Liver Microsome (HLM) Assay; format: in vitro ADME; conditions: @0.5 h
# Method: Compound metabolism in human liver microsomes was measured by LC-MS analytical assay procedures as follows. First, human liver microsomes (HLM) were thawed and diluted to 5 mg/mL with cold 100 mM potassium phosphate (KPO4) buffer. Appropriate amounts of KPO4 buffer, NADPH-regenerating solution (containing B-NADP, glucose-6-phosphate, glucose-6-phosphate dehydrogenase, and MgCl2), and HLM were preincubated in 13×100 mm glass tubes at 37 C. for 10 min. (3 tubes per test compound—triplicate). Test compound (5 µM final) was added to each tube to initiate reaction and was mixed by gentle vortexing, followed by incubation at 37° C. […] Samples were centrifuged at 4000 rpm for 20 min. to precipitate proteins and salt (Beckman Allegra 6KR, S/N ALK98DO6, #634). Supernatant was transferred to new 12×75 mm glass tubes and evaporated by Speed-Vac centrifugal vacuum evaporator. Samples were reconstituted in 200 μL 0.1% formic acid/acetonitrile (90/10) and vortexed vigorously to dissolve. The samples were then transferred to separate polypropylene microcentrifuge tubes and centrifuged at 14000×g for 10 min. (Fisher Micro 14, S/N M0017580). […]
# The combined compound samples were injected into the LC-MS system, composed of a Hewlett-Packard HP 1100 diode array HPLC and a Micromass Quattro II triple quadruple mass spectrometer operating in positive electrospray SIR mode (programmed to scan specifically for the molecular ion of each test compound. Each test compound peak was integrated at each timepoint. […]
# [3] = tested on: human umbilical vein endothelial cells (HUVEC); test: HUVEC Proliferation Assay (VEGF-stimulated); format: cell-based
# Method: (§2) This assay determines the ability of a test compound to inhibit the growth factor-stimulated proliferation of human umbilical vein endothelial cells (“HUVEC”). HUVEC cells (passage 3–4, Clonetics, Corp.) were thawed into EGM2 culture medium (Clonetics Corp) in T75 flasks. Fresh EGM2 medium was added to the flasks 24 hours later. Four or five days later, cells were exposed to another culture medium (F12K medium supplemented with 10% fetal bovine serum (FBS), 60 μg/mL endothelial cell growth supplement (ECGS), and 0.1 mg/mL heparin). Exponentially-growing HUVEC cells were used in experiments thereafter. Ten to twelve thousand HUVEC cells were plated in 96-well dishes in 100 μl of rich, culture medium (described above). The cells were allowed to attach for 24 hours in this medium. The medium was then removed by aspiration and 105 μl of starvation media (F12K+1% FBS) was added to each well. After 24 hours, 15 μl of test agent dissolved in 1% DMSO in starvation medium or this vehicle alone was added into each treatment well; the final DMSO concentration was 0.1%. One hour later, 30 μl of VEGF (30 ng/mL) in starvation media was added to all wells except those containing untreated controls; the final VEGF concentration was 6 ng/mL. Cellular proliferation was quantified 72 hours later by MTT dye reduction, at which time cells were exposed for 4 hours MTT (Promega Corp.). Dye reduction was stopped by addition of a stop solution (Promega Corp.) and absorbance at 595λ was determined on a 96-well spectrophotometer plate reader.
# (§3) IC50 values were calculated by curve-fitting the response of A^595 to various concentrations of the test agent; typically, seven concentrations separated by 0.5 log were employed, with triplicate wells at each concentration. For screening compound library plates, one or two concentrations (one well per concentration) were employed, and the % inhibition was calculated by the following formula: % inhibition=(control−test)[…](control−starvation) where
# control=A^595 when VEGF is present without test agent
# test=A^595 when VEGF is present with test agent
# starvation=A^595 when VEGF and test agent are both absent.
# HUVEC = HUVEC + albumin proliferation; format: cell-based; conditions: Homo sapiens, 72 h, with albumin
# Method: as §2, §3
# FGF-R1 = molecular target: T2, FGF-R1 (Homo sapiens, UniProt P11362, C488A/C584S/L457V); test: Fibroblast Growth Factor (FGF-R) spectrophotometric assay; format: biochemical; conditions: 1 μM compound; read-out: FGF-P % inhibit @1 μM
# T2 construct: starting from the endogenous methionine residue 456 to glutamate 766; made in house; host or cells: baculovirus vector expression system
# Text: The intracellular kinase domain of human FGF-R1 was expressed using the baculovirus vector expression system starting from the endogenous methionine residue 456 to glutamate 766, according to the residue numbering system of Mohammadi et al., Mol. Cell. Biol., 16, 977–989 (1996). In addition, the construct also has the following 3 amino acid substitutions: L457V, C488A, and C584S.
# as §1
# The spectrophotometric assay was carried out as described above for VEGF-R2, except for the following changes in concentration: FGF-R=50 nM, ATP=2 mM, and poly(E4Y1)=15 mM.
# LCK = molecular target: T3, LCK (Homo sapiens, UniProt P06239, C224D/P223M); test: Lymphocyte-Specific Protein-Tyrosine Kinase (LCK) spectrophotometric assay; format: biochemical; conditions: 1 μM compound; read-out: LckP* % inhibit @1 μM
# T3 construct: starting from amino acid residue 223 to the end of the protein at residue 509; made in house; host or cells: insect cells
# PDGFRβ = molecular target: T4, PDGFRβ (Homo sapiens, UniProt P09619); test: PAE-PDGFRβ Phosphorylation in PAE-PDGFRB Cells Assay; format: cell-based; conditions: PAE cells overexpressing human PDGFRβ; read-out: PAE PDGFR autophos IC50
# T4 construct: expressed in transfected cells; host or cells: porcine aorta endothelial (PAE) cells
# Method: This assay determines the ability of a test compound to inhibit the autophosphorylation of PDGFRβ in porcine aorta endothelial (PAE)-PDGFRβ cells. PAE cells that overexpress human PDGFRβ were used in this assay. The cells were cultured in Ham's F12 media supplemented with 10% fetal bovine serum (FBS) and 400 ug/ml G418. Twenty thousands cells were seeded in each well of a 96-well plate in 50 μL of growth media and allowed to attach for 6 hours at 37° C. Cells were then exposed to the starvation media (Ham's F12 media supplemented with 0.1% FBS) for 16 hours. After the starvation period was over, 10 μL of test agent in 5% DMSO in starvation media were added to the test wells and 10 μL of the vehicle (5% DMSO in starvation media) were added into the control wells. The final DMSO concentration in each well was 0.5%. Plates were incubated at 37° C. for 1 hour and the cells were then stimulated with 1 μg/mL PDGF-BB (R & D System) in the presence of 2 mM Na3VO4 for 8 minutes. The cells were washed once with 1 mm Na3VO4 in HBSS and lysed by adding 50 μL per well of lysis buffer. One hundred μL of dilution buffer were then added to each well and the diluted cell lysate was transferred to a 96-well goat ant-rabbit coated plate (Pierce), which was pre-coated with Rabbit anti Human PDGFRβ antibody (Santa Cruz). The plates were incubated at room temperature for 2 hours and washed seven times with 1% Tween 20 in PBS. HRP-PY20 (Santa Cruz) was diluted and added to the plate for a 30-minute incubation. Plates were then washed again and TMB peroxidase substrate (Kirkegaard & Perry) was added for a 10-minute incubation. One hundred μL of 0.09 N H2SO4 was added into each well of the 96-well plate to stop the reaction. Phosphorylation status was assessed by spectrophotometer reading at 450 nm. IC50 values were calculated by curve fitting using a four-parameter analysis.
# T1 sequence (P35968 with tags, fused parts or gaps DEL940-989/E990V limits assumed): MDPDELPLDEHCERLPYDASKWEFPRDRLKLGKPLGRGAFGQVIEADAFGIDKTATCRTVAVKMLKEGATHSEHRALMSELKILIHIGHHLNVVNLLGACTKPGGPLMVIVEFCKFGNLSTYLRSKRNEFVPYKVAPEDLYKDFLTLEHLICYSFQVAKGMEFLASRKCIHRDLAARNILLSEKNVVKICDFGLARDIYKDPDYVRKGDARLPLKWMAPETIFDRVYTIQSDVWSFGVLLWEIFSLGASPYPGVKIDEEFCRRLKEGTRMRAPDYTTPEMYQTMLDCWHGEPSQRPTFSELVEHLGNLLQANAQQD
# T2 sequence (P11362 456-766 L457V/C488A/C584S): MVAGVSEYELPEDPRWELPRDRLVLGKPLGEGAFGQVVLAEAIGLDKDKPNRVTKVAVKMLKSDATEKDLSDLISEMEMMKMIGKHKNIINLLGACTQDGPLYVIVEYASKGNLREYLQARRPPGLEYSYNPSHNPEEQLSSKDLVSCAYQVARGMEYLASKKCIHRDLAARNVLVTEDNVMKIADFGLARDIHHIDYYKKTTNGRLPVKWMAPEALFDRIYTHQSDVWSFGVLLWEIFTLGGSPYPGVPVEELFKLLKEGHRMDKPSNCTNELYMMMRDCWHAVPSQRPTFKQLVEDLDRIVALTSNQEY
# T3 sequence (P06239 223-509 P223M/C224D): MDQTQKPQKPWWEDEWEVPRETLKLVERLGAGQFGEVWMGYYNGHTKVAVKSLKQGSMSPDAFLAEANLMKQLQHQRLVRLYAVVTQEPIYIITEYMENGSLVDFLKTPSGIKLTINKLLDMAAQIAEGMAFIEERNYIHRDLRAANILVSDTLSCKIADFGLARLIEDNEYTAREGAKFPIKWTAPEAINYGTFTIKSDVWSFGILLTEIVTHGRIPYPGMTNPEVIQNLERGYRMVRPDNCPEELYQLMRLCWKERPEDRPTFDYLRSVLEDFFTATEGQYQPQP
# T4 sequence (P09619 33-1106): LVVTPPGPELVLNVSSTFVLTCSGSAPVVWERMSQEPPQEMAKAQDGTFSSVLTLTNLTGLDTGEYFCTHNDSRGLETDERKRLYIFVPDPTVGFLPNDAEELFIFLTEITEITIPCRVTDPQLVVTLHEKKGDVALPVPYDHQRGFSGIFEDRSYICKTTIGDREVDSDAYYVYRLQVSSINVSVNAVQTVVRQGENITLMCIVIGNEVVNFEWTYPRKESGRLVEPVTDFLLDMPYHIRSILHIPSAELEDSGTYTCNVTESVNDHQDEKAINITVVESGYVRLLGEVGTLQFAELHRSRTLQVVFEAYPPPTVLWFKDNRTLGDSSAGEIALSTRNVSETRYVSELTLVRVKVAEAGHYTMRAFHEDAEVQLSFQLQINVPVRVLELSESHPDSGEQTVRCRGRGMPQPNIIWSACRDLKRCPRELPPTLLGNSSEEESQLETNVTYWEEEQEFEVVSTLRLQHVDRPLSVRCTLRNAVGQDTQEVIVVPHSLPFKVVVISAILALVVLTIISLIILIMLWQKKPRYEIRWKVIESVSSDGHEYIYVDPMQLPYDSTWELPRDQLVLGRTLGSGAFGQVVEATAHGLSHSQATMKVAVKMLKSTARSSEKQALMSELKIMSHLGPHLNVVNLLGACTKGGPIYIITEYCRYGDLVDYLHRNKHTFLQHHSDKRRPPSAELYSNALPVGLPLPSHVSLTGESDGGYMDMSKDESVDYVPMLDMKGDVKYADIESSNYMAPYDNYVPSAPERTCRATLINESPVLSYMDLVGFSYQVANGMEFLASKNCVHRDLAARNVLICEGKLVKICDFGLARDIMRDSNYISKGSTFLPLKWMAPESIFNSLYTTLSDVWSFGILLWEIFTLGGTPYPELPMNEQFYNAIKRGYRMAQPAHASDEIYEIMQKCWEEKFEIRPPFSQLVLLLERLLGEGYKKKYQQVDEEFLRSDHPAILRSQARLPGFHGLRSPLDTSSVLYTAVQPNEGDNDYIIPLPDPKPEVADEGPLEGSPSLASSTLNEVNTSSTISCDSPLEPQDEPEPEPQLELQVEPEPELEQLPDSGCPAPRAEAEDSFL
"AUC (Mouse PK Assay; ip, intraperitoneal, read-out: Mouse pK, AUC, ip)","AUC (Mouse PK Assay; oral, read-out: Mouse pK, AUC, po)",inhibition at 0.05 µM [1],% remaining (HLM) [2],inhibition at 1 µM (FGF-R1),inhibition at 1 µM (LCK),IC50 (PDGFRβ),SMILES,IC50 [3],IC50 (HUVEC)
690 ng·h/mL,330 ng·h/mL,–,–,–,–,–,"COC(=O)C(C(=O)OC)c1ccc(Cl)cc1[N+](=O)[O-] [Example 1(a), 2-(4-Chloro-2-nitro-phenyl)-malonic acid dimethyl ester]",–,–
–,–,91%,46@0.5 h %,83%,9%,–,"CC(C)ONC(=O)c1ccccc1Nc1ccc2c(/C=C/c3ccccn3)n[nH]c2c1 [Example 3(c), N-Isopropoxy-2-[3-((E)-2-pyridin-2-yl-vinyl)-1H-indazol-6-ylamino]-benzamide]",0.43 nM,9.2 nM
–,–,95%,–,60%,41%,–,Cn1cccc1C(=O)NNC(=O)c1ccccc1Nc1ccc2c(/C=C/c3ccccn3)n[nH]c2c1 [Example 3(f)],–,> 100 nM
–,–,75%,–,–,–,2 nM,"Cc1ccnc(/C=C/c2n[nH]c3cc(Nc4ccccc4C(=O)NCc4ccncc4)ccc23)c1 [Example 38, 2-{3-[2-(4-Methyl-pyridin-2-yl)-vinyl]-1H-indazol6-ylamino}-N-pyridin-4-ylmethyl-benzamide]",–,0.68 nM
